This is an account of results in patent US20120094919A1, “USE OF TRIPEPTIDES” (priority 2009, published 2012).

What all share (format): cell-based
Conditions in all cases: 3 days incubation

In test [1] the test system is Hyaluronan synthesis in normal human fibroblasts (NHF). Kind of test: Hyaluronan synthesis in normal human fibroblasts (Hyaluronan Assay Kit). As for the experimental part: Normal human fibroblasts (NHF) were seeded in 96 well cell culture plates (Nunclon). After three days of growth a tripeptide derivative of the present invention was added in medium without FCS and the cells were incubated for an additional three days. Secreted Hyaluronan synthesis in the growth medium was measured using the Hyaluronan Assay Kit from Echelon (Salt Lake City, Utah).
(§1) The results were evaluated relative to a control consisting of cells that have not been treated with the tripeptide derivative of formula (I) and which is set to 100%.

The subject of test [2] is Decorin synthesis in normal human fibroblasts (NHF). Nature of the test: Decorin synthesis in normal human fibroblasts (EIA). As for the experimental part: (§2) Normal human fibroblasts (NHF) were grown in 96 well cell culture plates (Nunclon). After three days a tripeptide derivative of the present invention was added in medium without FCS and the cells were incubated for an additional three days. To measure Decorin synthesis an enzyme linked immunoassay (EIA) was performed. In brief: the cells were fixed with 4% paraformaldehyde, and permeabilized with 0.5 Triton-X100 followed by blocking of unspecific binding sites with 5% skim milk. To stain for Decorin the cells were incubated with goat-anti-Decorin antibody (R&Dsystems) which was detected with rabbit-anti-goat HRP conjugated (Pierce) secondary antibody. After addition of substrate Decorin synthesis was measured at 492 nm in an absorbance plate reader (Multiskan Ascent, Thermolabsystems).
as §1

Test [3] deals with Lumican synthesis in normal human fibroblasts (NHF). Kind of test: Lumican synthesis in normal human fibroblasts (EIA). As for the experimental part:
as §2, with “well” for “well cell”, “Lumican” for “Decorin”, “goat-anti-Lumican (L-20)” for “goat-anti-Decorin”, “(Santa Cruz Biotechnology, sc-27718)” for “(R&Dsystems)”, “[…]” for “rabbit-anti-goat”
as §1

The mark [4] stands for this setting: 100 μM, relative to untreated control.
The mark [5] stands for this setting: 25 μM, untreated control = 100%.
Setting [6] is: 10 μM, untreated control = 100%.
The mark [7] stands for this setting: 50 μM, untreated control = 100%.
Setting [8] is: 12.5 μM, untreated control = 100%.

With “Myristoyl-Lys-Val-Lys-OH*2TFA [Tripeptide No 11]”, the “Synthesis Stimulation of Hyaluronan” value in test [1] (setting [4]) was “inactive”. Moreover, the “Synthesis Stimulation of Decorin” value in test [2] (setting [4]) is “inactive”. For the same substance, the “Synthesis Stimulation of Lumican” value in test [3] (setting [4]) is “inactive”.
“H-Lys-Val-Lys-OH *3 TFA [Tripeptide No 15]”: the “Synthesis Stimulation of Hyaluronan” value in test [1] (setting [4]) is “inactive”. For the same substance, in test [2] (setting [4]), the “Synthesis Stimulation of Decorin” value was “inactive”. Further, the “Synthesis Stimulation of Lumican” value in test [3] (setting [4]) is “inactive”.
“Palm-Lys-Nva-Dab-OH *2TFA [Tripeptide No 5]”: in test [1] (setting [5]), the “Synthesis Stimulation of Hyaluronan” value was 220%.
As for “Palm-Lys-Val-Orn-OH *2 TFA [Tripeptide No 16]”, the “Synthesis Stimulation of Hyaluronan” value in test [1] (setting [4]) is “inactive”. The “Synthesis Stimulation of Decorin” value in test [2] (setting [4]) is “inactive”. Also, the “Synthesis Stimulation of Lumican” value in test [3] (setting [4]) was “inactive”.
In the case of “Palm-Lys-Val-Lys-OH *2 TFA [Tripeptide No 1]”, the “Synthesis Stimulation of Hyaluronan” value in test [1] (setting [6]) is 220%. In test [2] (setting [5]), the “Synthesis Stimulation of Decorin” value turned out to be 200%/25 μM. Further, in test [3] (setting [6]), the “Synthesis Stimulation of Lumican” value came to 120%.
“Stearoyl-Lys-Val-Lys-OH*2TFA [Tripeptide No 14]”: the “Synthesis Stimulation of Hyaluronan” value in test [1] (setting [4]) was “inactive”. Besides, in test [2] (setting [4]), the “Synthesis Stimulation of Decorin” value was “inactive”. Moreover, the “Synthesis Stimulation of Lumican” value in test [3] (setting [4]) is “inactive”.
Take “Tetradecyl-NH—C(O)-Arg-Val-Arg-OH *2 TFA [Tripeptide No 10]”: the “Synthesis Stimulation of Hyaluronan” value in test [1] (setting [5]) stood at 220%.
With “Palm-Lys-Val-Dab-OH *2 TFA [Tripeptide No 18]”, the “Synthesis Stimulation of Hyaluronan” value in test [1] (setting [4]) is “inactive”. Moreover, in test [2] (setting [4]), the “Synthesis Stimulation of Decorin” value is “inactive”. For the same substance, the “Synthesis Stimulation of Lumican” value in test [3] (setting [4]) is “inactive”.
On to “Palm-Orn-Val-Lys-OH *2 TFA [Tripeptide No 2]”, for which, in test [1] (setting [7]), the “Synthesis Stimulation of Hyaluronan” value is reported as 180%.
As to “Tetradecyl-NH—C(O)-Lys-Ile-Dab-OH *2 TFA [Tripeptide No 9]”, the “Synthesis Stimulation of Hyaluronan” value in test [1] (setting [5]) is given as 220%.
The same measure, in the same setting: the figure for “Palm-Lys-Ile-Dab-OH *2TFA [Tripeptide No 4]” is 180%; for “Palm-Lys-Leu-Lys-OH *2 TFA [Tripeptide No 3]” it is 180%.
“Palm-Lys-Val-Dap-OH *2 TFA [Tripeptide No 17]”: the “Synthesis Stimulation of Hyaluronan” value in test [1] (setting [4]) is “inactive”. For the same substance, the “Synthesis Stimulation of Decorin” value in test [2] (setting [4]) was “inactive”. In addition, the “Synthesis Stimulation of Lumican” value in test [3] (setting [4]) was “inactive”.
Regarding “Palm-Lys-Leu-Dab-OH *2TFA [Tripeptide No 6]”, the “Synthesis Stimulation of Hyaluronan” value in test [1] (setting [7]) was found to be 220%.
Take “Palm-Lys-Val-Dab-NH-Hexadecyl *2 TFA [Tripeptide No 7]”: the “Synthesis Stimulation of Hyaluronan” value in test [1] (setting [5]) was found to be 300%.
As for “Lauroyl-Lys-Val-Lys-OH*2TFA [Tripeptide No 12]”, the “Synthesis Stimulation of Hyaluronan” value in test [1] (setting [4]) was “inactive”. Moreover, in test [2] (setting [4]), the “Synthesis Stimulation of Decorin” value was “inactive”. In addition, the “Synthesis Stimulation of Lumican” value in test [3] (setting [4]) was “inactive”.
With “Caprinoyl-Lys-Val-Lys-OH*2TFA [Tripeptide No 13]”, the “Synthesis Stimulation of Hyaluronan” value in test [1] (setting [4]) was “inactive”. Besides, the “Synthesis Stimulation of Decorin” value in test [2] (setting [4]) is “inactive”. The “Synthesis Stimulation of Lumican” value in test [3] (setting [4]) was “inactive”.
For the substance “Tetradecyl-NH—C(O)-Dab-Val-Dab-OH *2 TFA [Tripeptide No 8]”, the “Synthesis Stimulation of Hyaluronan” value in test [1] (setting [8]) turned out to be 400%. In test [2] (setting [8]), the “Synthesis Stimulation of Decorin” value was determined as 170%. Besides, in test [3] (100 μM, untreated control = 100%), the “Synthesis Stimulation of Lumican” value came to 165%/100 μM.
